Molecular target: T1, human β3 adrenergic receptor (Homo sapiens, UniProt P13945)
T1 construct: expressed in transfected cells
Assay: whole cell receptor coupled c-AMP assay (Emax relative to isoproterenol)
Type: cell-based
Conditions: % intrinsic activity: maximal response divided by isoproterenol maximal response times 100; transfected CHO cells; average of at least 3 runs
Text: The genes encoding the human β1-adrenergic receptor (Frielle et al., Proc. Natl. Acad. Sci., 84:7920–7924, 1987), the human β2-adrenergic receptor (Kobika et al., Proc. Natl. Acad. Sci., 84:46–50, 1987, Emorine et al., Proc. Natl. Acad. Sci., 84:6995–6999, 1987) and the human β3 adrenergic receptor (Granneman et al., Molecular Pharmacology, 44(2):264–70, 1993) are individually subcloned into a phd expression vector (Grinnell et al., Bio/Technology, 5:1189–1192, 1987) and transfected into the DXB-11 Chinese hamster ovary (CHO) cell line by calcium phosphate precipitation methodology. The stably transfected cells are grown to 95% confluency in 95% Dulbecco's modified Eagles Medium (DMEM), 5% fetal bovine serum and 0.01% proline. Media is removed and the cells are washed with phosphate buffered (pH 7.4) saline (without magnesium and calcium). Cells are then lifted using an enzyme free cell dissociation solution (Specialty Media, Lavallette, N.J.) and pelleted by centrifugation.
Cells from each of the above cell lines are resuspended and added (20,000/well) to a 96-well plate. Cells are incubated at 37° C. with representative compounds of the invention for 20 minutes in buffer (Hank's balanced salt solution, 10 mM HEPES, 0.1% BSA, 1 mM L-ascorbic acid, 0.2% dimethyl sulfoxide, 1 mM 3-isobutyl-1-methylxanthine, pH 7.4). After halting the incubation with quench buffer (50 mM Na Acetate, 0.25% Triton X-100, pH 5.8), the c-AMP level is quantified by scintillation proximity assay (SPA) using a modification of the commercially available c-AMP kit (Amersham, Arlington Heights, Ill.) with rabbit anti-cAMP antibody (ICN Biomedicals, Aurora, Ohio) for the kit.
Sigmoidal dose response curves, from the whole cell receptor coupled c-AMP assay are fit to a four parameter logistic equation using non linear regression: y=(a−d)/(1+(Dose/c)^b)+d where a and d are responses at zero and maximal dose, b is the slope factor and c is the EC50 as previously described (DeLean et al., Am. J. Physiol., 235, E97-E102, 1978). EC50 is assessed as the concentration producing 50% of the maximum response to each agonist.
Isoproterenol is accepted in the art as a non-selective β3 agonist and is widely used as a comparator in evaluating the activity of compounds. See Trends in Pharm. Sci., 15:3, 1994. The % intrinsic activity (Emax) of representative compounds of the invention is assessed relative to isoproterenol by the compound's maximal response divided by the isoproterenol maximal response times 100.

T1 sequence (P13945 whole entry): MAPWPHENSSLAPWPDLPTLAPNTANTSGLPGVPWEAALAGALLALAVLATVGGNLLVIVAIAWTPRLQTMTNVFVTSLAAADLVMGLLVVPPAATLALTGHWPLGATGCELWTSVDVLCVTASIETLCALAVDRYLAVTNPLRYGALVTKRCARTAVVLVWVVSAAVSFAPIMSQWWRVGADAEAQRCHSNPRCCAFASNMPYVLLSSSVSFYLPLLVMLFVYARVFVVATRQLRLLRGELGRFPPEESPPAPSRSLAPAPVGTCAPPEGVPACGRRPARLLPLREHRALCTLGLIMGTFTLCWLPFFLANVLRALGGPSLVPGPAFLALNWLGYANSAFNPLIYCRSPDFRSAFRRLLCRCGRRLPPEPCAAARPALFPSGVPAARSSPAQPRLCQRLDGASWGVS

Row | SMILES | Emax (%) ± SEM [%]
1 | CC(C)(Cc1c[nH]c2ccccc12)NC[C@H](O)COc1ccccc1-c1ccc(F)s1 [Example 126] | 76.1 ± 2.9
2 | CC(C)(Cc1c[nH]c2c(F)cccc12)NC[C@H](O)COc1ccccc1-c1ccon1 [Example 173] | 50.2 ± 1.5
3 | CC(C)(Cc1c[nH]c2ccccc12)NC[C@H](O)COc1ccccc1-c1ccns1 [Example 83] | 73.7 ± 2.0
4 | CC(C)(Cc1c[nH]c2cccc(F)c12)NC[C@H](O)COc1ccccc1-c1ccon1 [Example 166] | 47.8 ± 0.6
5 | CC(C)(Cc1c[nH]c2cc(C(=O)O)ccc12)NC[C@H](O)COc1ccccc1-c1ccc(S(N)(=O)=O)s1 [Example 55] | 78.4 ± 0.2
6 | Cc1csc(-c2ccccc2OC[C@@H](O)CNC(C)(C)Cc2c[nH]c3ccccc23)c1.O=C(O)C(F)(F)F [Example 21] | 61.3 ± 3.2
7 | CC(C)(Cc1c[nH]c2c(OCC#N)cccc12)NC[C@H](O)COc1ccccc1-c1ccon1 [Example 132] | 53.6 ± 1.4
8 | CC(C)(Cc1c[nH]c2cc(C(=O)O)ccc12)NC[C@H](O)COc1ccccc1-c1ccc(C#N)s1 [Example 96] | 74.1 ± 2.4
9 | C[C@H](Cn1ccc2c(OCC#N)cccc21)NC[C@H](O)COc1ccccc1-c1ccon1 [Example 150] | 46.6 ± 1.9
10 | CC(C)(Cc1c[nH]c2cc(C(=O)O)ccc12)NC[C@H](O)COc1ccccc1-c1ccsc1 [Example 62] | 63.8 ± 0.5
11 | CC(C)(Cc1c[nH]c2ccc(OCC#N)cc12)NC[C@H](O)COc1ccccc1-c1cccs1 [Example 169] | 51.9 ± 3.4
12 | CC(C)(Cc1c[nH]c2c(OCC#N)cccc12)NC[C@H](O)COc1ccccc1-c1cocn1.O=C(O)C(F)(F)F [Example 6] | 55.0 ± 3.4
13 | CC(C)(Cc1c[nH]c2ccccc12)NC[C@H](O)COc1ccccc1-c1nncs1 [Example 82] | 45.5 ± 3.5
14 | C[C@@H](NC[C@H](O)COc1ccccc1-c1cccs1)C(=O)N1CCc2ccccc21 [Example 131] | 23.6 ± 1.7
15 | CC(C)(Cc1c[nH]c2c(OCC#N)cccc12)NC[C@H](O)COc1ccccc1-c1cccs1 [Example 137] | 65.5 ± 4.7
16 | CC(C)(Cc1c[nH]c2ccc(F)cc12)NC[C@H](O)COc1ccccc1-c1cccs1 [Example 163] | 57.1 ± 5.8
17 | CC(C)(Cc1c[nH]c2ccccc12)NC[C@H](O)COc1ccccc1-c1cc(C#N)cs1.O=C(O)C(F)(F)F [Example 19] | 49.1 ± 4.6
18 | C[C@H](Cn1ccc2ccccc21)NC[C@H](O)COc1ccccc1-c1nccs1 [Example 66] | 34.8 ± 3.2
19 | COC(=O)c1cccc2c1ccn2C[C@@H](C)NC[C@H](O)COc1ccccc1-c1cccs1 [Example 153] | 45.2 ± 8.4
20 | CC(C)(Cc1c[nH]c2cc(F)ccc12)NC[C@H](O)COc1ccccc1-c1ccon1 [Example 172] | 55.0 ± 1.1
21 | COC(=O)c1ccc2c(CC(C)(C)NC[C@H](O)COc3ccccc3-c3cccs3)c[nH]c2c1 [Example 75] | 47.2 ± 0.3
22 | CC(C)(Cc1c[nH]c2cc(F)ccc12)NC[C@H](O)COc1ccccc1-c1nccs1 [Example 159] | 53.0 ± 1.8
23 | Cc1csc(-c2ccccc2OC[C@@H](O)CNC(C)(C)Cc2c[nH]c3c(OCC#N)cccc23)c1.O=C(O)C(F)(F)F [Example 22] | 66.0 ± 0.9
24 | CC(C)(Cc1c[nH]c2ccccc12)NC[C@H](O)COc1ccccc1-c1csc(C#N)c1.O=C(O)C(F)(F)F [Example 15] | 50.2 ± 7.3
25 | CC(C)(Cc1c[nH]c2ccccc12)NC[C@H](O)COc1ccccc1-c1nccs1 [Example 68] | 53.2 ± 1.6
26 | Cc1ccc(-c2ccccc2OC[C@@H](O)CNC(C)(C)Cc2c[nH]c3ccccc23)s1.O=C(O)C(F)(F)F [Example 13] | 63.4 ± 0.3
27 | CC(C)(Cc1c[nH]c2c(OCC#N)cccc12)NC[C@H](O)COc1ccccc1-c1ccc(C#N)s1.O=C(O)C(F)(F)F [Example 12] | 77.7 ± 4.6

More lines, now with the values ahead:

Row | Emax (%) ± SEM [%] | SMILES
28 | 67.6 ± 3.9 | COC(=O)c1ccc(Oc2cccc3c(CC(C)(C)NC[C@H](O)COc4ccccc4-c4cccs4)c[nH]c23)nc1 [Example 117]
29 | 79.3 ± 7.1 | COC(=O)CCc1cccc2c(CC(C)(C)NC[C@H](O)COc3ccccc3-c3cccs3)c[nH]c12 [Example 145]
30 | 47.7 ± 1.6 | CC(=O)Nc1ccc(-c2cccc3c(CC(C)(C)NC[C@H](O)COc4ccccc4-c4ccon4)c[nH]c23)cc1 [Example 183]
31 | 97.7 ± 5.9 | CC(C)(Cc1c[nH]c2c(Oc3ncccc3C#N)cccc12)NC[C@H](O)COc1ccccc1-c1cccs1 [Example 112]
32 | 77.9 ± 0.7 | CC(C)(Cc1c[nH]c2c(CCc3ccc(C#N)cc3)cccc12)NC[C@H](O)COc1ccccc1-c1cccs1 [Example 187]
33 | 78.0 ± 8.5 | CC(C)(Cc1c[nH]c2c(-c3ccsc3)cccc12)NC[C@H](O)COc1ccccc1-c1cccs1 [Example 106]
34 | 73.1 ± 1.0 | CCOC(=O)c1cccc(-c2cccc3c(CC(C)(C)NC[C@H](O)COc4ccccc4-c4ccon4)c[nH]c23)c1 [Example 41]
35 | 41.1 ± 3.5 | CC(C)(Cc1c[nH]c2c(C(N)=O)cccc12)NC[C@H](O)COc1ccccc1-c1ccon1 [Example 175]
36 | 83.3 ± 4.0 | CC(C)(Cc1c[nH]c2c(Oc3ccc(C#N)cn3)cccc12)NC[C@H](O)COc1ccccc1-c1cccs1 [Example 115]
37 | 59.2 ± 1.0 | CC(C)(Cc1c[nH]c2c(-c3ccc(C(F)(F)F)cc3)cccc12)NC[C@H](O)COc1ccccc1-c1cccs1 [Example 104]
38 | 82.1 ± 1.4 | CC(C)(Cc1c[nH]c2c(CCS(C)(=O)=O)cccc12)NC[C@H](O)COc1ccccc1-c1cccs1 [Example 142]
39 | 38.4 ± 3.2 | CC(=O)c1ccc(-c2cccc3c(CC(C)(C)NC[C@H](O)COc4ccccc4-n4cccc4)c[nH]c23)cc1 [Example 50]
40 | 41.9 ± 4.5 | COC(=O)c1ccc(-c2cccc3c(CC(C)(C)NC[C@H](O)COc4ccccc4-n4cccc4)c[nH]c23)cc1 [Example 45]
41 | 89.6 ± 10.9 | CC(C)(Cc1c[nH]c2c(NS(=O)(=O)c3ccccc3)cccc12)NC[C@H](O)COc1ccccc1-c1cccs1 [Example 25]
42 | 60.4 ± 6.0 | CC(=O)c1ccc(-c2cccc3c(CC(C)(C)NC[C@H](O)COc4ccccc4-c4cccs4)c[nH]c23)cc1 [Example 48]

Same assay, conditions: CHO, % intrinsic activity: maximal response divided by isoproterenol maximal response times 100; transfected CHO cells; average of at least 3 runs

Row | SMILES | Emax [%]
43 | C[C@H](Cn1ccc2c(C(=O)O)cccc21)NC[C@H](O)COc1ccccc1-c1cccs1 [Example 242] | 59.6 ± 2.8
44 | CC(C)(Cc1c[nH]c2c(OCC(=O)O)cccc12)NC[C@H](O)COc1ccccc1-c1ccon1 [Example 223] | 56.1 ± 2.8
45 | CC(C)(Cc1c[nH]c2ccc(OCC(=O)O)cc12)NC[C@H](O)COc1ccccc1-c1cccs1 [Example 237] | 73.9 ± 2.9
46 | CC(C)(Cc1c[nH]c2c(OCc3nnn[nH]3)cccc12)NC[C@H](O)COc1ccccc1-c1cccs1 [Example 229] | 83 ± 2.5
47 | CC(C)(Cc1c[nH]c2c(OCC#N)cccc12)NC[C@H](O)COc1ccccc1-n1cccc1 [Example 256] | 71.4 ± 2.7
48 | CC(C)(Cc1c[nH]c2c(CCc3nnn[nH]3)cccc12)NC[C@H](O)COc1ccccc1-c1cccs1 [Example 232] | 79.5 ± 1.7
49 | CC(C)(Cc1c[nH]c2cccc(C(N)=O)c12)NC[C@H](O)COc1ccccc1-c1cccs1 [Example 257] | 81.8 ± 8.5
50 | CC(C)(Cc1c[nH]c2cc(C(=O)O)ccc12)NC[C@H](O)COc1ccccc1-c1cccs1 [Example 240] | 78.7 ± 2.4
51 | C[C@H](Cn1ccc2cc(C(=O)O)ccc21)NC[C@H](O)COc1ccccc1-c1cccs1 [Example 243] | 48.4 ± 2.5

Other lines, results leading:

Row | Emax [%] | SMILES
52 | 63.3 ± 3 | CC(C)(Cc1c[nH]c2c(Oc3ccc(C(N)=O)cn3)cccc12)NC[C@H](O)COc1ccccc1-c1ccon1 [Example 245]
53 | 92.5 ± 5.1 | CC(C)(Cc1c[nH]c2c(-c3ccc(C(=O)O)s3)cccc12)NC[C@H](O)COc1ccccc1-c1cccs1 [Example 250]
54 | 87.5 ± 7.5 | CC(C)(Cc1c[nH]c2c(/C=C/C(=O)O)cccc12)NC[C@H](O)COc1ccccc1-c1cccs1 [Example 227]
55 | 54.6 ± 2.4 | CC(C)(Cc1c[nH]c2c(-c3ccc(C(=O)O)cc3)cccc12)NC[C@H](O)COc1ccccc1-c1ccon1 [Example 247]

Reference: patent publication US7208505B2, “β3 adrenergic agonists” (Eli Lilly and Company, priority 2001, dated 2007)
